In paper PMC5804415, “Comparison of ^68Ga-DOTA-Siglec-9 and ^18F-Fluorodeoxyribose-Siglec-9: Inflammation Imaging and Radiation Dosimetry” (Contrast Media & Molecular Imaging, 2017):
Read-outs that look alike come from different tables or passages of the source. Positions of bridges follow the written chain, without caps; N, C: chain ends. Residues, ends and D or L forms follow the SMILES beside them. *: point of attachment. X1 = O=C(CON=C[C@H](O)[C@H](O)[C@H](O)CF)*; AEEA = NCCOCCOCC(=O)O

Tests used:
[1] = Ex vivo gamma counting biodistribution in control mice; conditions: mouse, total radioactivity, C57BL/6N control mice (n = 13), 25 min after injection, mean ± SD
Procedure: Six-month-old atherosclerotic low-density lipoprotein receptor-deficient mice (weight, 27 ± 4.1 g; n = 19) expressing only apolipoprotein B100 (LDLR^−/−ApoB^100/100, strain #003000; Jackson Laboratory, Bar Harbor, ME, USA) were fed for 4 months with a Western-type diet. Two-month-old C57BL/6N mice (weight, 24 ± 2.2 g; n = 13) fed with a regular chow served as controls.
In PET studies, mice (19 atherosclerotic, 13 controls) were injected with 14 ± 4.4 MBq of ^18F-FDR-Siglec-9. Twenty-five minutes after ^18F-FDR-Siglec-9 injection, blood was drawn by cardiac puncture and the animals were killed. The thoracic aorta was excised and rinsed in saline to remove the blood. In addition, various other tissues were excised and patted dry. Samples of blood and urine were collected, and blood plasma was separated by centrifugation. […] The results were expressed as % ID/g and target-to-background ratio.

[2] = Ex vivo gamma counting biodistribution in rats with skin/muscle inflammation; conditions: Sprague-Dawley, rat, iv, total radioactivity; for tissue uptake at 1 h: Ex vivo biodistribution, rats with skin/muscle inflammation, i.v., 60 min after injection, gamma counting, mean ± SD
Source text: (§1) Twenty-four hours before the PET studies, Sprague-Dawley rats (weight, 350 ± 22 g; n = 16) were subcutaneously injected with turpentine oil (Sigma-Aldrich) to induce focal acute, sterile inflammation [12]. Before the injection, rats were shaved on the both forelegs. Inflamed area on the left foreleg contained both skin and muscle. The intact, contralateral side (right foreleg) was used as a control.
(§2) After PET imaging, rats were sacrificed and various tissues were excised and weighed, and their radioactivity levels were measured with a gamma counter (1480 Wizard 3′′, PerkinElmer, Turku, Finland). The ex vivo biodistribution results were expressed as a percentage of the injected radioactivity dose per gram of tissue (% ID/g) and target-to-background ratio.

[3] = test system: rats with skin/muscle inflammation (turpentine oil); test: as above; conditions: rats with skin/muscle inflammation, 60 min after injection, mean ± SD
Source text: as §1, §2

- tissue uptake at 25 min ([1]; adipose tissue, BAT, 14 MBq, read-out: Ex vivo biodistribution, Adipose tissue, BAT): 0.45 ± 0.13 %ID/g
- tissue uptake at 25 min ([1]; adipose tissue, WAT, 14 MBq, read-out: Ex vivo biodistribution, Adipose tissue, WAT): 0.63 ± 0.37 %ID/g
- tissue uptake at 25 min ([1]; aorta, 14 MBq, read-out: Ex vivo biodistribution, Aorta): 0.52 ± 0.23 %ID/g
- tissue uptake at 25 min ([1]; blood, 14 MBq, read-out: Ex vivo biodistribution, Blood): 2.1 ± 0.59 %ID/g
- tissue uptake at 25 min ([1]; brain, 14 MBq, read-out: Ex vivo biodistribution, Brain): 0.11 ± 0.048 %ID/g
- tissue uptake at 25 min ([1]; heart, 14 MBq, read-out: Ex vivo biodistribution, Heart): 0.34 ± 0.082 %ID/g
- tissue uptake at 25 min ([1]; kidney, 14 MBq, read-out: Ex vivo biodistribution, Kidney): 43 ± 25 %ID/g
- tissue uptake at 25 min ([1]; liver, read-out: Ex vivo biodistribution, Liver): 3.5 ± 2.3 %ID/g
- tissue uptake at 25 min ([1]; lungs, read-out: Ex vivo biodistribution, Lungs): 1.5 ± 0.45 %ID/g
- tissue uptake at 25 min ([1]; muscle, read-out: Ex vivo biodistribution, Muscle): 0.43 ± 0.13 %ID/g
- tissue uptake at 25 min ([1]; pancreas, read-out: Ex vivo biodistribution, Pancreas): 0.57 ± 0.18 %ID/g
- tissue uptake at 25 min ([1]; plasma, read-out: Ex vivo biodistribution, Plasma): 3.8 ± 0.62 %ID/g
- tissue uptake at 25 min ([1]; small intestine, read-out: Ex vivo biodistribution, Small intestine): 0.79 ± 0.29 %ID/g
- tissue uptake at 25 min ([1]; spleen, read-out: Ex vivo biodistribution, Spleen): 0.62 ± 0.32 %ID/g
- tissue uptake at 25 min ([1]; thymus, 14 MBq, read-out: Ex vivo biodistribution, Thymus): 0.43 ± 0.089 %ID/g
- excreta dose per gram or mL at 25 min ([1]; urine, 14 MBq): 610 ± 340 %ID/g
- tissue uptake at 1 h ([2]; adipose tissue, BAT, Adipose tissue, BAT): 0.049 ± 0.019 %ID/g
- tissue uptake at 1 h ([2]; adipose tissue, WAT, Adipose tissue, WAT): 0.017 ± 0.0041 %ID/g
- tissue uptake at 1 h ([2]; blood, Blood): 0.12 ± 0.023 %ID/g
- tissue uptake at 1 h ([2]; bone (femoral), Bone (femoral)): 0.017 ± 0.01 %ID/g
- tissue uptake at 1 h ([2]; bone marrow, Bone marrow): 0.056 ± 0.011 %ID/g
- tissue uptake at 1 h ([2]; brain, Brain): 0.01 ± 0.003 %ID/g
- tissue uptake at 1 h ([2]; control area (intact right foreleg), Control area): 0.11 ± 0.056 %ID/g
- tissue uptake at 1 h ([2]; heart, Heart): 0.048 ± 0.01 %ID/g
- tissue uptake at 1 h ([2]; inflamed area (left foreleg, skin and muscle), Inflamed area): 0.19 ± 0.053 %ID/g
- tissue uptake at 1 h ([2]; kidneys, Kidneys): 14 ± 9.9 %ID/g
- tissue uptake at 1 h ([2]; liver, Liver): 0.68 ± 0.12 %ID/g
- tissue uptake at 1 h ([2]; lungs, Lungs): 0.11 ± 0.028 %ID/g
- tissue uptake at 1 h ([2]; muscle, Muscle): 0.021 ± 0.0067 %ID/g
- tissue uptake at 1 h ([2]; pancreas, Pancreas): 0.048 ± 0.011 %ID/g
- tissue uptake at 1 h ([2]; plasma, Plasma): 0.23 ± 0.087 %ID/g
- tissue uptake at 1 h ([2]; small intestine, Small intestine): 0.091 ± 0.029 %ID/g
- tissue uptake at 1 h ([2]; spleen, Spleen): 0.06 ± 0.012 %ID/g
- excreta dose per gram or mL at 1 h ([2]; urine, SD): 23 ± 14 %ID/g
- tissue uptake at 1 h ([2]; male, testis, Testis): 0.046 ± 0.022 %ID/g
SMILES: CC(C)C[C@@H]1NC(=O)CNC(=O)[C@H](CCCNC(=N)N)NC(=O)[C@H](Cc2c[nH]c3ccccc23)NC(=O)[C@H](CO)NC(=O)[C@H](CC(C)C)NC(=O)[C@H](CO)NC(=O)[C@H](CC(C)C)NC(=O)[C@H](CCCNC(=N)N)NC(=O)[C@H](C)NC(=O)[C@@H](NC(=O)COCCOCCNC(=O)CON=C[C@H](O)[C@H](O)[C@H](O)CF)CSSC[C@@H](C(=O)N2CCC[C@H]2C(=O)N[C@@H](CO)C(=O)N[C@@H](CCCCN)C(=O)O)NC(=O)[C@H](CC(C)C)NC(=O)[C@H]([C@@H](C)O)NC1=O [^18F-FDR-Siglec-9] ({X1-AEEA}-CARLSLSWRGLTLCPSK-OH; disulfide 1-14; N-terminus and C-terminus assumed)
- inflamed-to-control area ratio (ex vivo gamma counting) [3]: 2.0 ± 0.70
- inflammation-to-blood ratio (ex vivo gamma counting) [3]: 1.3 ± 0.16
